Measured values taken from patent US20250368678A1, “19-NOR-C3,3-DISUBSTITUTED C21-AZACYCLO-S[…] AND METHOD FOR USING SAME” (SHANDONG LUYE PHARMACEUTICAL CO., LTD., priority 2022, published 2025).

Tested on: not listed separately
Assay: In vitro liver microsomal stability assay, human
Assay type: in vitro ADME
Settings: Human liver microsomes
Method: (§1) 1) Preparation of working solutions of test samples: The test samples were diluted with acetonitrile to 100 M.
(§2) 2) Preparation of a working solution of liver microsomes: liver microsomes were diluted with 100 mM phosphate-buffered saline to 0.56 mg/mL.
(§3) 3) Preparation of a working solution of reduced nicotinamide adenine dinucleotide (NADPH): A proper amount of NADPH was weighed out and diluted with phosphate-buffered saline to 20 mM, and an equal volume of a 60 mM MgCl2 solution was added.
(§4) 4) Preparation of a stop solution: Tolbutamide was diluted with acetonitrile to 20 ng/mL, serving as a stop solution containing an internal standard.
(§5) 1) Incubation anti-adsorption EP tubes were prepared and labeled with species, test/control sample, time points (0, 5, 10, 20, 30, 60 min, Blank60, and NCF60), etc.
(§6) 2) 2 L of test or control sample working solution, diluted with acetonitrile to 100 M, and 178 L of liver microsome working solution were added to each tube. For the Blank60 tube, 2 L of acetonitrile was added instead of a test sample. The tubes were pre-incubated in a 37° C. water bath for about 10 min, with each sample tested in triplicate.
(§7) 3) After the pre-incubation was complete, 20 L of NADPH working solution was added to each tube except for the 0 min and NCF60 tubes to start reactions, and 20 L of phosphate-buffered saline (containing 30 mM MgCl2) was added to the NCF60 tube. In the incubation system, the final concentrations of the test and control samples were 1 M, the final concentration of liver microsomes was 0.5 mg/mL, the final concentration of NADPH was 1 mM, and the final concentration of MgCl2 was 3 mM.
(§8) 4) For the 0 min sample, 600 L of stop solution was added before adding the NADPH working solution. After each sample was incubated for its respective time, 600 L of stop solution was added to stop the reaction.
(§9) 5) After the reaction was stopped, each sample was vortexed for 30 s and then centrifuged at 13,500 rpm for 10 min. 100 L of the supernatant was transferred to an EP tube, and 100 L Milli-Q water was added. The mixture was well mixed by vortexing and analyzed by LC-MS/MS.
(§10) 6) Testosterone and dextromethorphan were used as positive control samples under the same conditions to assess the stability and reliability of the system.
(§11) Parameters of the test samples, including their half-lives, intrinsic clearance rates in liver microsomes, and hepatic intrinsic clearance rates, were calculated based on the percentage of test sample remaining.

| SMILES | CLint scaled at 1 µM [mL/min/kg] | T1/2 [min] | half-life at 1 µM [min] |
| --- | --- | --- | --- |
| C[C@@]1(O)CC[C@H]2[C@H](CC[C@@H]3[C@@H]2CC[C@]2(C)[C@@H](C(=O)Cn4cnn(-c5cccnc5)c4=O)CC[C@@H]32)C1 [Compound 2] | 52 | 24.1 |  |
| COc1ccc(-n2ncn(CC(=O)[C@H]3CC[C@H]4[C@@H]5CC[C@@H]6C[C@](C)(O)CC[C@@H]6[C@H]5CC[C@]34C)c2=O)cn1 [Compound 17] | 17 | 72.9 |  |
| COc1cccc(-n2ncn(CC(=O)[C@H]3CC[C@H]4[C@@H]5CC[C@@H]6C[C@](C)(O)CC[C@@H]6[C@H]5CC[C@]34C)c2=O)c1 [Compound 5] | 24 |  | 52.5 |

Same assay, conditions: Human liver microsomes 0.5 mg/mL, NADPH

| SMILES | Remaining amount % at 60 min [%] |
| --- | --- |
| C[C@@]1(O)CC[C@H]2[C@H](CC[C@@H]3[C@@H]2CC[C@]2(C)[C@@H](C(=O)Cn4cnn(-c5cccnc5)c4=O)CC[C@@H]32)C1 [Compound 2] | 18.57 |
| COc1ccc(-n2ncn(CC(=O)[C@H]3CC[C@H]4[C@@H]5CC[C@@H]6C[C@](C)(O)CC[C@@H]6[C@H]5CC[C@]34C)c2=O)cn1 [Compound 17] | 57.7 |
| COc1cccc(-n2ncn(CC(=O)[C@H]3CC[C@H]4[C@@H]5CC[C@@H]6C[C@](C)(O)CC[C@@H]6[C@H]5CC[C@]34C)c2=O)c1 [Compound 5] | 43.53 |

Same assay, conditions: Human liver microsomes; read-out: CLint(mic)

| SMILES | microsomal CLint at 1 µM [µL/min/mg] |
| --- | --- |
| C[C@@]1(O)CC[C@H]2[C@H](CC[C@@H]3[C@@H]2CC[C@]2(C)[C@@H](C(=O)Cn4cnn(-c5cccnc5)c4=O)CC[C@@H]32)C1 [Compound 2] | 57 |
| COc1ccc(-n2ncn(CC(=O)[C@H]3CC[C@H]4[C@@H]5CC[C@@H]6C[C@](C)(O)CC[C@@H]6[C@H]5CC[C@]34C)c2=O)cn1 [Compound 17] | 19 |
| COc1cccc(-n2ncn(CC(=O)[C@H]3CC[C@H]4[C@@H]5CC[C@@H]6C[C@](C)(O)CC[C@@H]6[C@H]5CC[C@]34C)c2=O)c1 [Compound 5] | 26 |

Target: T1, α1β2γ2 GABA receptors (α1β2γ2-CHO-TRex stable cell strain) (Homo sapiens, UniProt P14867+P47870)
T1 construct: expressed in transfected cells
T1 sequence (P14867 28-456): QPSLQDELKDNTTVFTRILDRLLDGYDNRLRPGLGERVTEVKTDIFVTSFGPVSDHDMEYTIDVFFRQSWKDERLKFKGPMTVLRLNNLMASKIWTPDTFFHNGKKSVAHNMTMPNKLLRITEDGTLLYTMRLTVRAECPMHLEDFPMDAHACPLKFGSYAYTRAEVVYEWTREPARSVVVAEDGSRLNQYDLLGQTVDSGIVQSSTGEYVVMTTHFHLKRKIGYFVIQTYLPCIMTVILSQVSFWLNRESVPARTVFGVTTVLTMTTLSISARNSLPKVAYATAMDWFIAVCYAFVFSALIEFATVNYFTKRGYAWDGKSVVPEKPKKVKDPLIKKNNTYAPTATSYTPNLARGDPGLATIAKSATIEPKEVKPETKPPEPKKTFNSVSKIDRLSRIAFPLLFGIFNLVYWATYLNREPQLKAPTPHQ
T1 sequence (P47870 25-512 limits assumed): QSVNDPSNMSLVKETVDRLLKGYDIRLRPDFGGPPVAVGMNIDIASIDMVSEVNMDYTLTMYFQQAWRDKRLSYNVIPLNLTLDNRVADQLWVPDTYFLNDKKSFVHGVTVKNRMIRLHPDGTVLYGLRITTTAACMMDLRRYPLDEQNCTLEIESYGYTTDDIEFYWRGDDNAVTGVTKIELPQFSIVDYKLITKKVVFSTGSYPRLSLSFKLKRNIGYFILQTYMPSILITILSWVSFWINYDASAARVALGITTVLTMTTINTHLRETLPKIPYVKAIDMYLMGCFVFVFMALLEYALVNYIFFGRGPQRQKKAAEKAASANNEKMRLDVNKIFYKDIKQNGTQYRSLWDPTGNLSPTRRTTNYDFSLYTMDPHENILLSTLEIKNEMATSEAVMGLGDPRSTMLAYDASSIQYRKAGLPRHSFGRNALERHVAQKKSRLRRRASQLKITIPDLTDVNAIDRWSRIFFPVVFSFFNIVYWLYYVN
T1 sequence (P18507 40-475 partner): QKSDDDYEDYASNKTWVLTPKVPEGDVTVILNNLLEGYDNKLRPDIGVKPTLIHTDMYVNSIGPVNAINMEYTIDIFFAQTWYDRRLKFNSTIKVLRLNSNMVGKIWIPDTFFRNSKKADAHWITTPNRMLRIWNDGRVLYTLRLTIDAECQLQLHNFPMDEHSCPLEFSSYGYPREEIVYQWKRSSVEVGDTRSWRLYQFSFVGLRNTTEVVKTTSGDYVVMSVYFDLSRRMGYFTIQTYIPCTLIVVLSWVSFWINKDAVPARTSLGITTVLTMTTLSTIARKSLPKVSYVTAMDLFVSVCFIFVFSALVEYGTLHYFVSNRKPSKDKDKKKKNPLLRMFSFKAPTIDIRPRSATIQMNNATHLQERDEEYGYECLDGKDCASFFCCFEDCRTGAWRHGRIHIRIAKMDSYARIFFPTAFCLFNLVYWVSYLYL
Assay: Whole-cell patch clamp, intrasynaptic functional activity (positive allosteric regulation of GABA-induced current)
Assay type: cell-based
Settings: patch clamp -60 mV, GABA at EC10-20, α1β2γ2-CHO-TRex cells
Method: (§12) The α4β3δ-HEK-FlpIn-TRex stable cell strain was cultured in DMEM+10% FBS complete culture medium, with the selective antibiotics being 10 μg/mL Blasticidin, 100 µg/mL Zeocin, 100 µg/mL Hygromycin, and 0.2 μg/mL Puromycin. The α1β2γ2-CHO-TRex stable cell strain was cultured in DMEM/F12+10% FBS complete culture medium, with the selective antibiotics being 10 μg/mL Blasticidin, 100 μg/mL Zeocin, 300 μg/mL Hygromycin, and […] Puromycin.
(§13) The day before the patch clamp experiment, cells were seeded onto 12 mm polylysine-coated coverslips and then cultured in 35 mm culture dishes, and tetracycline ([…]) was added to induce the expression of GABA receptors. The extracellular fluid had the following composition (in mM): 140 NaCl, 3 KCl, 1.5 MgCl2, 2 CaCl2, 10 HEPES, and 10 Glucose. After thorough mixing, NaOH was added to adjust the pH to 7.4, and sucrose was added to adjust the osmotic pressure to 300-320 mOsm. The fluid was stored at 4° C. The electrode internal solution had the following composition (in mM): 145 KCl, 1 MgCl2, 5 EGTA, 10 HEPES, and 5 MgATP. After thorough mixing, KOH was added to adjust the pH to 7.3, and sucrose was added to adjust the osmotic pressure to 290-300 mOsm. The solution was filtered through a […] before use.
(§14) Whole-cell patch clamp recording was mainly employed in this experiment. The membrane potential was clamped at −60 mV, and receptors were activated using GABA at an EC10-20 concentration ([…]). The test compounds were dissolved in 0.1% DMSO, and perfusion was performed for 30 s prior to GABA stimulation. Finally, the positive allosteric regulating effects of the test compounds on α1β2γ2 or α4β3δ were determined.
(§15) The experimental result for each concentration was expressed as a fold increase in the GABA-induced current caused by the compound. […] At least 5 concentrations are tested to obtain a complete EC50 curve and EC50 values. All experiments were repeated on no less than 3 cells, and data processing was completed using GraphPad prism software. The dose-response curves were fitted using the Hill equation, and the half-maximal activating concentration EC50 and Emax were finally obtained.

| SMILES | Emax [%] | EC50 [nM] |
| --- | --- | --- |
| C[C@@]1(O)CC[C@H]2[C@H](CC[C@@H]3[C@@H]2CC[C@]2(C)[C@@H](C(=O)Cn4c(=O)n(-c5ccccc5)c5ccccc54)CC[C@@H]32)C1 [Compound 13] | 305 |  |
| C[C@@]1(O)CC[C@@]2(C)[C@@H](CC[C@@H]3[C@@H]2CC[C@]2(C)[C@@H](C(=O)Cn4cnn(-c5ccnc(F)c5)c4=O)CC[C@@H]32)C1 [Compound 42] | 736 | 280 |
| C[C@@]1(O)CC[C@H]2[C@H](CC[C@@H]3[C@@H]2CC[C@]2(C)[C@@H](C(=O)Cn4cnn(-c5ccnc(C(F)F)c5)c4=O)CC[C@@H]32)C1 [Compound 37] | 600 |  |
| C[C@@]1(O)CC[C@H]2[C@H](CC[C@@H]3[C@@H]2CC[C@]2(C)[C@@H](C(=O)Cn4cnn(-c5cccnc5)c4=O)CC[C@@H]32)C1 [Compound 2] | 773 |  |
| COc1ccc(-n2ncn(CC(=O)[C@H]3CC[C@H]4[C@@H]5CC[C@@H]6C[C@](C)(O)CC[C@@H]6[C@H]5CC[C@]34C)c2=O)cn1 [Compound 17] | 389 |  |
| COc1cccc(-n2ncn(CC(=O)[C@H]3CC[C@H]4[C@@H]5CC[C@@H]6C[C@](C)(O)CC[C@@H]6[C@H]5CC[C@]34C)c2=O)c1 [Compound 5] | 410 | 26 |
| C[C@@]1(O)CC[C@H]2[C@H](CC[C@@H]3[C@@H]2CC[C@]2(C)[C@@H](C(=O)Cn4cnn(-c5cc(F)ccn5)c4=O)CC[C@@H]32)C1 [Compound 35] | 446 | 340 |
| Cc1cc(-n2ncn(CC(=O)[C@H]3CC[C@H]4[C@@H]5CC[C@@H]6C[C@](C)(O)CC[C@@H]6[C@H]5CC[C@]34C)c2=O)cc(C)n1 [Compound 40] | 691 |  |

Tested on: not listed separately
Assay: In vitro liver microsomal stability assay, rat
Assay type: in vitro ADME
Settings: Rat liver microsomes
Method: as §1, §2, §3, §4, §5, §6, §7, §8, §9, §10, §11

| SMILES | CLint scaled at 1 µM [mL/min/kg] | T1/2 [min] | half-life at 1 µM [min] |
| --- | --- | --- | --- |
| C[C@@]1(O)CC[C@H]2[C@H](CC[C@@H]3[C@@H]2CC[C@]2(C)[C@@H](C(=O)Cn4cnn(-c5cccnc5)c4=O)CC[C@@H]32)C1 [Compound 2] | 187 | 11.3 |  |
| COc1ccc(-n2ncn(CC(=O)[C@H]3CC[C@H]4[C@@H]5CC[C@@H]6C[C@](C)(O)CC[C@@H]6[C@H]5CC[C@]34C)c2=O)cn1 [Compound 17] | 161 | 15.5 |  |
| COc1cccc(-n2ncn(CC(=O)[C@H]3CC[C@H]4[C@@H]5CC[C@@H]6C[C@](C)(O)CC[C@@H]6[C@H]5CC[C@]34C)c2=O)c1 [Compound 5] | 176 |  | 14.1 |

Same assay, conditions: Rat liver microsomes 0.5 mg/mL, NADPH

| SMILES | Remaining amount % at 60 min [%] |
| --- | --- |
| C[C@@]1(O)CC[C@H]2[C@H](CC[C@@H]3[C@@H]2CC[C@]2(C)[C@@H](C(=O)Cn4cnn(-c5cccnc5)c4=O)CC[C@@H]32)C1 [Compound 2] | 11.25 |
| COc1ccc(-n2ncn(CC(=O)[C@H]3CC[C@H]4[C@@H]5CC[C@@H]6C[C@](C)(O)CC[C@@H]6[C@H]5CC[C@]34C)c2=O)cn1 [Compound 17] | 6.6 |
| COc1cccc(-n2ncn(CC(=O)[C@H]3CC[C@H]4[C@@H]5CC[C@@H]6C[C@](C)(O)CC[C@@H]6[C@H]5CC[C@]34C)c2=O)c1 [Compound 5] | 14.19 |

Same assay, conditions: Rat liver microsomes; read-out: CLint(mic)

| SMILES | microsomal CLint at 1 µM [µL/min/mg] |
| --- | --- |
| C[C@@]1(O)CC[C@H]2[C@H](CC[C@@H]3[C@@H]2CC[C@]2(C)[C@@H](C(=O)Cn4cnn(-c5cccnc5)c4=O)CC[C@@H]32)C1 [Compound 2] | 104 |
| COc1ccc(-n2ncn(CC(=O)[C@H]3CC[C@H]4[C@@H]5CC[C@@H]6C[C@](C)(O)CC[C@@H]6[C@H]5CC[C@]34C)c2=O)cn1 [Compound 17] | 90 |
| COc1cccc(-n2ncn(CC(=O)[C@H]3CC[C@H]4[C@@H]5CC[C@@H]6C[C@](C)(O)CC[C@@H]6[C@H]5CC[C@]34C)c2=O)c1 [Compound 5] | 98 |

Target: T2, α4β3δ GABA receptors (α4β3δ-HEK-FlpIn-TRex stable cell strain) (Homo sapiens, UniProt P28472+P48169)
T2 construct: expressed in transfected cells
T2 sequence (P48169 36-554): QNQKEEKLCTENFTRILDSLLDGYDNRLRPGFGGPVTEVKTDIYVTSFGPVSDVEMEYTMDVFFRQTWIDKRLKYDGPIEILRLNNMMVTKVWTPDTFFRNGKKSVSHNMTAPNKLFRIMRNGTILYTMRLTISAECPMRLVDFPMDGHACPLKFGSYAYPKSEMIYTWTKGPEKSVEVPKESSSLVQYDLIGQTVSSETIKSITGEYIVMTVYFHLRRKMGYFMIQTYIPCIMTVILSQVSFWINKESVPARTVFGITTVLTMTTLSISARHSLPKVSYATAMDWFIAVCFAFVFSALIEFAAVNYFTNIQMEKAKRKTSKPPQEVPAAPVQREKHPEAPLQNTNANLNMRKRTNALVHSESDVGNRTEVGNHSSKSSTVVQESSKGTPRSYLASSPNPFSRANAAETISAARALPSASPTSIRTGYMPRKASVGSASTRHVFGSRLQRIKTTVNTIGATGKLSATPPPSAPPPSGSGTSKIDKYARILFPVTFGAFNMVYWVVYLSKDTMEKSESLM
T2 sequence (P28472 26-473): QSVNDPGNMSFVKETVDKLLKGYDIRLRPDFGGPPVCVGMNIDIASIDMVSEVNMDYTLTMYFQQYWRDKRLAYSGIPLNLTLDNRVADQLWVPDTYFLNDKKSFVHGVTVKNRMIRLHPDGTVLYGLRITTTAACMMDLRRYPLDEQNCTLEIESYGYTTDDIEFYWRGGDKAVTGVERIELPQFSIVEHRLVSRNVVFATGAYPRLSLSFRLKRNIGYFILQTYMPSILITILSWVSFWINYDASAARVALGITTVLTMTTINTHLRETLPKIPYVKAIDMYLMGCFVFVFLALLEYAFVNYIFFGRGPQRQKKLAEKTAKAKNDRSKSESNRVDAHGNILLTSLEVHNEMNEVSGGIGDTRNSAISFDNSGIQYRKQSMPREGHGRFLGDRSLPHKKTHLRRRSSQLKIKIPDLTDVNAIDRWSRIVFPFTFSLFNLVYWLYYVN
T2 sequence (O14764 25-452 partner): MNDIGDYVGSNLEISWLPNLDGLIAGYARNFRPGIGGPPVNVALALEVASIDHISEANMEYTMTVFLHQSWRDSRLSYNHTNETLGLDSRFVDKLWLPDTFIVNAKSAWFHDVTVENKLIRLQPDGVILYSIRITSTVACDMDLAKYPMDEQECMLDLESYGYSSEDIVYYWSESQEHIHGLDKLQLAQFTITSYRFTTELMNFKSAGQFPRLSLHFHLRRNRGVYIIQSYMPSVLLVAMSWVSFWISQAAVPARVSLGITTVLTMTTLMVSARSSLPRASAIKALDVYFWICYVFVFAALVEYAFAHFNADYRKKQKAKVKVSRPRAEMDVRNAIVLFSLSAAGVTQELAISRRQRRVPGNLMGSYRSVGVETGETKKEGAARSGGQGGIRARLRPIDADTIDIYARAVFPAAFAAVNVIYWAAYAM
Assay: Whole-cell patch clamp, extrasynaptic functional activity (positive allosteric regulation of GABA-induced current)
Assay type: cell-based
Settings: patch clamp -60 mV, GABA at EC10-20, α4β3δ-HEK-FlpIn-TRex cells
Method: as §12, §13, §14, §15

| SMILES | Emax [%] | EC50 [nM] |
| --- | --- | --- |
| C[C@@]1(O)CC[C@H]2[C@H](CC[C@@H]3[C@@H]2CC[C@]2(C)[C@@H](C(=O)Cn4c(=O)n(-c5ccccc5)c5ccccc54)CC[C@@H]32)C1 [Compound 13] | 470 |  |
| C[C@@]1(O)CC[C@@]2(C)[C@@H](CC[C@@H]3[C@@H]2CC[C@]2(C)[C@@H](C(=O)Cn4cnn(-c5ccnc(F)c5)c4=O)CC[C@@H]32)C1 [Compound 42] | 507 | 143 |
| C[C@@]1(O)CC[C@H]2[C@H](CC[C@@H]3[C@@H]2CC[C@]2(C)[C@@H](C(=O)Cn4cnn(-c5ccnc(C(F)F)c5)c4=O)CC[C@@H]32)C1 [Compound 37] | 432 |  |
| C[C@@]1(O)CC[C@H]2[C@H](CC[C@@H]3[C@@H]2CC[C@]2(C)[C@@H](C(=O)Cn4cnn(-c5cccnc5)c4=O)CC[C@@H]32)C1 [Compound 2] | 391 |  |
| COc1ccc(-n2ncn(CC(=O)[C@H]3CC[C@H]4[C@@H]5CC[C@@H]6C[C@](C)(O)CC[C@@H]6[C@H]5CC[C@]34C)c2=O)cn1 [Compound 17] | 474 |  |
| COc1cccc(-n2ncn(CC(=O)[C@H]3CC[C@H]4[C@@H]5CC[C@@H]6C[C@](C)(O)CC[C@@H]6[C@H]5CC[C@]34C)c2=O)c1 [Compound 5] | 570 | 21 |
| C[C@@]1(O)CC[C@H]2[C@H](CC[C@@H]3[C@@H]2CC[C@]2(C)[C@@H](C(=O)Cn4cnn(-c5cc(F)ccn5)c4=O)CC[C@@H]32)C1 [Compound 35] | 720 | 68 |
| Cc1cc(-n2ncn(CC(=O)[C@H]3CC[C@H]4[C@@H]5CC[C@@H]6C[C@](C)(O)CC[C@@H]6[C@H]5CC[C@]34C)c2=O)cc(C)n1 [Compound 40] | 563 |  |
